# Test results taken from patent US20250100996A1, “HETEROCYCLOALKYL AND HETEROARYL COMPOUNDS AND PHARMACEUTICAL COMPOSITIONS THAT MODULATE IKZF2” (Plexium, Inc., priority 2021, published 2025).
# Key:
# IKZF1 (Ikaros) = biological target: T1, IKZF1 (Ikaros) (Homo sapiens, UniProt Q13422); experiment: IKZF1 reporter degradation assay (HEK 293T IKZF1-mNeonGreen reporter cell line); format: cell-based; details: HEK 293T IKZF1-mNeonGreen reporter, 24 hours incubation
# T1 construct: mScarlet (behind P2A) (C, cleaved yes); expressed in transfected cells
# T1 sequence (Q96SW2 whole entry partner): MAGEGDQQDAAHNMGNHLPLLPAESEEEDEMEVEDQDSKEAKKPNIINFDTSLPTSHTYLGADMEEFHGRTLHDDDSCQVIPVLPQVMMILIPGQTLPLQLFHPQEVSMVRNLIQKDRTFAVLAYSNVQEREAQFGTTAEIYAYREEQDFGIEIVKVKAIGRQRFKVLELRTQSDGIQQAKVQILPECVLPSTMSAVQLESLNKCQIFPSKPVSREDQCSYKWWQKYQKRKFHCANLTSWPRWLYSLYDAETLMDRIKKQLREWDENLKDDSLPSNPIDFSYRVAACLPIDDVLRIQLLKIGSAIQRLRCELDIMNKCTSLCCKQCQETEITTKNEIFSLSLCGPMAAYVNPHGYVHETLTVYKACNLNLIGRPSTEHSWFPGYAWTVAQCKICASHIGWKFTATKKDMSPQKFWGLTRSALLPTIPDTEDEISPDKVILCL
# T1 sequence (Q16531 whole entry partner): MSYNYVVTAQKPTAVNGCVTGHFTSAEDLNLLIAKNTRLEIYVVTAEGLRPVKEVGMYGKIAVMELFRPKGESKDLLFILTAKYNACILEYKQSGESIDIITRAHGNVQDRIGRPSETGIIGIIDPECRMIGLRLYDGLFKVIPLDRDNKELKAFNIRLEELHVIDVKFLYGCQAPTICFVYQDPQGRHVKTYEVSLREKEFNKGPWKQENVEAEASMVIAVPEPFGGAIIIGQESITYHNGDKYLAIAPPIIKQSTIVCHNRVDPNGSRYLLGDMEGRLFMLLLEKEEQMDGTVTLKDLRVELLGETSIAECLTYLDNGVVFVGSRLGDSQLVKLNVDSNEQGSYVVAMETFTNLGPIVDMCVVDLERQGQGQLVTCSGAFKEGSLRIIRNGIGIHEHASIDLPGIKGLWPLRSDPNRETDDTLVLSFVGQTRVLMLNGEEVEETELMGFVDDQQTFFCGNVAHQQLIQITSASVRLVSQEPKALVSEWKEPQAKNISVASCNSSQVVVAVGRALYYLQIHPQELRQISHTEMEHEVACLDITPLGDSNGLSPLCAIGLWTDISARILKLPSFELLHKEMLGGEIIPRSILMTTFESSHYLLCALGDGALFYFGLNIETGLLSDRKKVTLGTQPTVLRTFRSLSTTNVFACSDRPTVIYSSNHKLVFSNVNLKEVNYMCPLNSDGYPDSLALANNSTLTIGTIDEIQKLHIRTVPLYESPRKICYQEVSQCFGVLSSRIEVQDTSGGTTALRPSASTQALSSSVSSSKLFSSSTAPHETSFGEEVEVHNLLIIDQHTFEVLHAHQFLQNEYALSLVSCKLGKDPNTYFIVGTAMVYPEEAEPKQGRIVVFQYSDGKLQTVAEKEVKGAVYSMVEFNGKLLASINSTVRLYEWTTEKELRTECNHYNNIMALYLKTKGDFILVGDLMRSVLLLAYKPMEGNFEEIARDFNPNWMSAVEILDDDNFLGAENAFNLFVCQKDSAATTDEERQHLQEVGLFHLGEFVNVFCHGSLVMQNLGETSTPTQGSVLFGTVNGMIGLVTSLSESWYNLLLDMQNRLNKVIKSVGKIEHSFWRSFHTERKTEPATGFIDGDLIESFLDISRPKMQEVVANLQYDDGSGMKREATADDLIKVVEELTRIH
# T1 sequence (Q13422 whole entry): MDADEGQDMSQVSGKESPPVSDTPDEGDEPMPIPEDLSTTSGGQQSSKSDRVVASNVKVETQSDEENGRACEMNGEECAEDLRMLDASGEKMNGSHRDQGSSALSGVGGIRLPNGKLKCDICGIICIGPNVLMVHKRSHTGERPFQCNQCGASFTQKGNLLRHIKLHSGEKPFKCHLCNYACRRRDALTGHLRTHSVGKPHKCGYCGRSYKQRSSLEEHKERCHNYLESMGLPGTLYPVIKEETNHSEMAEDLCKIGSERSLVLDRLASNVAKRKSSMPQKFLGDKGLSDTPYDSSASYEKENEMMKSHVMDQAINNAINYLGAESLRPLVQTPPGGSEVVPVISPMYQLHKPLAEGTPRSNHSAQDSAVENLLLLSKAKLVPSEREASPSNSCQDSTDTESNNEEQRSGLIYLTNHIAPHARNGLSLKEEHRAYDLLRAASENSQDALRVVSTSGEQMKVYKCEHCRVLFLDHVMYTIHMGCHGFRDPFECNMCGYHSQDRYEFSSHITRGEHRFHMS
# Excerpt: Polycistronic plasmids were constructed for the mammalian expression of fluorescent reporter fusions of human transcription factors IKZF1 (Ikaros), IKZF2 (Helios), and IKZF3 (Aiolos). The respective protein sequences had their C-terminal end joined to a GGGGS linker repeated three times followed by mNeonGreen, P2A sequence, and mScarlet. The DNA sequences of the open reading frames are as follows:
# IKZF1, IKZF2, and IKZF3 constructs were cloned into the UCOE Hygromycin expression vectors (Millipore Sigma). Reporter constructs were transfected using cationic lipid reagents into adherent HEK 293T cells and stable integrants were selected by treatment with 200 μg/mL hygromycin B. Clonal populations were obtained from the population of stable integrants either by limiting dilution or fluorescence activated cell sorting.
# The clonal stable cell lines were maintained under constant 200 μg/mL hygromycin B selection while being passaged for use in the degradation assays. […] The fluorescence intensity of the IKZF1/2/3-mNeonGreen (FITC channel) and mScarlet (PE channel) reporters were routinely analyzed by flow cytometry to confirm consistent expression levels between experiments.
# The IKZF1/IKZF2/IKZF3 degradation assays were carried out by harvesting the HEK 293T reporter cell lines and resuspending the cells in media formulated for reduced background fluorescence (FluoroBrite; Thermo Fisher). The respective cell lines were seeded at a density of 4000 cells/well into black-walled 384-well optical grade assay tissue culture plates. The cells were incubated overnight at 37° C. to allow for attachment to the assay plate. Dilutions of the compounds were prepared in DMSO from 10 mM compound stocks. The assay plates were treated with appropriate concentrations of the compounds by dispensing the DMSO dilutions in quadruplicate wells with an upper limit of 0.5% final DMSO.
# After 24 hours incubation with the compounds, the assay plates were imaged on an ImageXpress Pico microscopy system (cells maintained at 37° C. during imaging) to obtain the fluorescent readouts. The assay plates were imaged in the FITC and Tetramethylrhodamine (TRITC) channels to obtain the mNeonGreen fluorescence intensity (reporter degradation data) and mScarlet fluorescence intensity (for cell segmentation). 293T-IKZF1 and 293T-IKZF3 reporter cell lines were imaged with exposures of 500 milliseconds (ms) for both FITC and TRITC channels, while the 293T-IKZF2 reporter cell line was imaged with exposures of 1000 ms for FITC and 1250 ms for TRITC. The resulting data was analyzed with Cell Reporter Xpress software using the 2-channel cell scoring analysis with a “percent positive” readout. The TRITC channel was selected for the “nuclei” segmentation with a threshold of 20 while the FITC channel was selected for the “Marker 1” segmentation and a threshold of 100 for the IKZF1 and IKZF3 reporter lines. […] The minimum segmentation width was set to 6 micrometers and the maximum segmentation width was set to 15 micrometers for all cell lines. The DC50 calculations were determined by regression to best fit four-parameter logistic curves using GraphPad Prism.
# IKZF3 (Aiolos) = biological target: T2, IKZF3 (Aiolos) (Homo sapiens, UniProt Q9UKT9); experiment: IKZF3 reporter degradation assay (HEK 293T IKZF3-mNeonGreen reporter cell line); format: cell-based; details: HEK 293T IKZF3-mNeonGreen reporter, 24 hours incubation
# T2 construct: Leu-Asp junction (codons ctcgac before the linker); mScarlet (behind P2A) (C, cleaved yes); expressed in transfected cells
# T2 sequence (Q96SW2 whole entry partner): as the sequence (Q96SW2 whole entry partner) above
# T2 sequence (Q16531 whole entry partner): as the sequence (Q16531 whole entry partner) above
# T2 sequence (Q9UKT9 whole entry): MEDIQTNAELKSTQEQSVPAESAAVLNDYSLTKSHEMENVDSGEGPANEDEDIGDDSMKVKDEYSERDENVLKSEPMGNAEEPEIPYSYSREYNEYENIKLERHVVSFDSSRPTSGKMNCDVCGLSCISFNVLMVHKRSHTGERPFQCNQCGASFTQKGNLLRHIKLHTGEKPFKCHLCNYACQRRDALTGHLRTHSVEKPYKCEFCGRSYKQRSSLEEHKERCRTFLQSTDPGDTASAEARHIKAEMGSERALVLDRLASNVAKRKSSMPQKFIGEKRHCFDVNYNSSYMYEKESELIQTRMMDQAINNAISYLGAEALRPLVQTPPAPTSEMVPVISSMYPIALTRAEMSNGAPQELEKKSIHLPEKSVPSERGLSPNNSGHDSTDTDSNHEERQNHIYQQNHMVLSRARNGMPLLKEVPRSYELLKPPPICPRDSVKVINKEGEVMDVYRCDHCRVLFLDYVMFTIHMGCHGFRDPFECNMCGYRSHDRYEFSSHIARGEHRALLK
# Procedure, shortened: (§1)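 Readout: percent of cells positive for the mNeonGreen-tagged IKZF reporter, imaged after 24 h of compound exposure at 37 °C in stable HEK 293T lines. The P2A-linked mScarlet defined the cells. DC50 values came from four-parameter logistic regression.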
# IKZF2 (Helios) [1] = biological target: T3, IKZF2 (Helios) (Homo sapiens, UniProt Q9UKS7); experiment: IKZF2 reporter degradation assay (HEK 293T IKZF2-mNeonGreen reporter cell line); format: cell-based; details: HEK 293T IKZF2-mNeonGreen reporter, 24 hours incubation
# T3 construct: Leu-Asp junction (codons ctcgac before the linker); mScarlet (behind P2A) (C, cleaved yes); expressed in transfected cells
# T3 sequence (Q9UKS7 whole entry): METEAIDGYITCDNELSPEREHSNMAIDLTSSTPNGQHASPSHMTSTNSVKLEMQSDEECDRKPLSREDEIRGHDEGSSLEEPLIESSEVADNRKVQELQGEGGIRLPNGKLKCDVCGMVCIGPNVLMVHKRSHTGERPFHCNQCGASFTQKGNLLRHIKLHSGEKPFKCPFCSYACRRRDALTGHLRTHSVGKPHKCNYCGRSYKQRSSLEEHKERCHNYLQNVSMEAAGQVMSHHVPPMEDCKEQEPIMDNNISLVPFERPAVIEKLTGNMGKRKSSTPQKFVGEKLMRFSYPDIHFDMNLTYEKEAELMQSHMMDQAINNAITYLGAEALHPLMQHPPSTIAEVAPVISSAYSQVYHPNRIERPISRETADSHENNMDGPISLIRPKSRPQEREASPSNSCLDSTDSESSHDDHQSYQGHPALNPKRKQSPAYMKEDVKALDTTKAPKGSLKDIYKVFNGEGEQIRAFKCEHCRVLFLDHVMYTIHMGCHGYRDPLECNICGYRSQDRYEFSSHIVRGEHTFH
# T3 sequence (Q96SW2 whole entry, further chain): as the sequence (Q96SW2 whole entry partner) above
# T3 sequence (Q16531 whole entry partner): as the sequence (Q16531 whole entry partner) above
# Procedure, shortened: as §1
# [2] = biological target: T4, human E3 ligase component cereblon (CRBN) (Homo sapiens, UniProt Q96SW2); experiment: Cereblon (CRBN) target engagement, NanoBRET TE Intracellular E3 Ligase Assay in transfected HEK-293T cells; details: read-out: CRBN Binding EC50
# T4 construct: host or cells: HEK293T
# T4 sequence (Q96SW2 whole entry): as the sequence (Q96SW2 whole entry partner) above
# T4 sequence (Q16531 whole entry partner): as the sequence (Q16531 whole entry partner) above
# Procedure, shortened: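 Tracer displacement was read as the 610/450 nm BRET signal after 2 h at 37° C with an 11-point dilution series, typically 10 μM to 100 pM. Live HEK-293T cells expressed NanoLuc fused N-terminal to human CRBN together with DDB1. IC50 was fitted with a four-parameter logistic model.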
# IKZF2 (Helios) [3] = biological target: T5, IKZF2 (Helios) (Homo sapiens, UniProt Q96SW2+Q9UKS7); experiment: IKZF2 reporter degradation assay (HEK 293T IKZF2-mNeonGreen reporter cell line); format: cell-based; details: @ 1 μM, HEK 293T IKZF2-mNeonGreen reporter, 24 hours incubation; for inhibition at 1 µM: HEK-293T, 24 h
# T5 construct: Leu-Asp junction (codons ctcgac before the linker); mScarlet (behind P2A) (C, cleaved yes); expressed in transfected cells
# T5 sequence (Q9UKS7 whole entry): as the sequence (Q9UKS7 whole entry) above
# T5 sequence (Q96SW2 whole entry): as the sequence (Q96SW2 whole entry partner) above
# T5 sequence (Q16531 whole entry partner): as the sequence (Q16531 whole entry partner) above
# Procedure, shortened: as §1
DC50 (IKZF1 (Ikaros)) [µM],DC50 (IKZF3 (Aiolos)) [µM],DC50 (IKZF2 (Helios) [1]) [µM],EC50 [2] [µM],IKZF2 % Degradation @ 1 μM (IKZF2 (Helios) [3]) [%],inhibition at 1 µM (IKZF2 (Helios) [3]) [%],Compound
> 30,> 30,> 30,0.122,,,"O=C1CCC(N2Cc3cc(OC4CCC[C@@H]4N4CC(c5ccccn5)C4)ccc3C2=O)C(=O)N1 (mixture of isomers) [Compound 210-B, Rac-3-(1-oxo-5-(((trans)-2-(3-(pyridin-2-yl)azetidin-1-yl)cyclopentyl)oxy)isoindolin-2-yl)piperidine-2,6-dione]"
> 30,> 30,> 30,0.02,,,"O=C1CCC(N2Cc3cc(OC4CCCC4N4CC(c5ncc(Cl)cn5)C4)ccc3C2=O)C(=O)N1 (stereo not shown) [Compound 200-B, 3-(5-((2-(3-(5-chloropyrimidin-2-yl)azetidin-1-yl)cyclopentyl)oxy)-1-oxoisoindolin-2-yl)piperidine-2,6-dione]"
> 30,> 30,> 30,0.022,,,"Cc1cnc(C2CN([C@H]3CCCC[C@@H]3Oc3ccc4c(c3)CN(C3CCC(=O)NC3=O)C4=O)C2)o1 (mixture of isomers) [Compound 175-B, Rac-3-(5-(((trans)-2-(3-(5-methyloxazol-2-yl)azetidin-1-yl)cyclohexyl)oxy)-1-oxoisoindolin-2-yl)piperidine-2,6-dione]"
> 30,> 30,> 30,0.031,,,"O=C1CCC(N2Cc3cc(O[C@H]4CCCC[C@@H]4N4CC(c5ccc(C(F)(F)F)nc5)C4)ccc3C2=O)C(=O)N1 (mixture of isomers) [Compound 191-B, Rac-3-(1-oxo-5-(((trans)-2-(3-(6-(trifluoromethyl)pyridin-3-yl)azetidin-1-yl)cyclohexyl)oxy)isoindolin-2-yl)piperidine-2,6-dione]"
> 30,> 30,> 30,0.076,,,"O=C1CCC(N2Cc3cc(OC4CCC[C@@H]4N4CC(c5cccnc5)C4)ccc3C2=O)C(=O)N1 (mixture of isomers) [Compound 208-B, Rac-3-(1-oxo-5-(((trans)-2-(3-(pyridin-3-yl)azetidin-1-yl)cyclopentyl)oxy)isoindolin-2-yl)piperidine-2,6-dione]"
> 30,> 30,> 30,0.071,,,"O=C1CCC(N2Cc3cc(OC4CCC[C@@H]4N4CC(c5ccncc5)C4)ccc3C2=O)C(=O)N1 (mixture of isomers) [Compound 206-B, Rac-3-(1-oxo-5-(((trans)-2-(3-(pyridin-4-yl)azetidin-1-yl)cyclopentyl)oxy)isoindolin-2-yl)piperidine-2,6-dione]"
> 30,> 30,> 30,0.024,,,"O=C1CCC(N2Cc3cc(O[C@H]4CCCC4N4CC(c5ccnc6ccccc56)C4)ccc3C2=O)C(=O)N1 (mixture of isomers) [Compound 195-B, Rac-3-(1-oxo-5-(((trans)-2-(3-(quinolin-4-yl)azetidin-1-yl)cyclopentyl)oxy)isoindolin-2-yl)piperidine-2,6-dione]"
> 30,> 30,> 30,0.138,,,"O=C1CCC(N2Cc3cc(OC4CCC[C@@H]4N4CC(c5cncnc5)C4)ccc3C2=O)C(=O)N1 (mixture of isomers) [Compound 197-B, Rac-3-(1-oxo-5-(((trans)-2-(3-(pyrimidin-5-yl)azetidin-1-yl)cyclopentyl)oxy)isoindolin-2-yl)piperidine-2,6-dione]"
> 30,> 30,2.1,0.899,,,"O=C1CCC(N2Cc3cc(O[C@H]4CCCC[C@@H]4N4CC(n5ccnc5)C4)ccc3C2=O)C(=O)N1 (stereo partly drawn) [Compound 176-B, 3-(5-(((1S,2S)-2-(3-(1H-imidazol-1-yl)azetidin-1-yl)cyclohexyl)oxy)-1-oxoisoindolin-2-yl)piperidine-2,6-dione]"
> 30,> 30,> 30,> 10,,,"O=C1NC(=O)C2(N3Cc4cc(O[C@H]5CCCC[C@@H]5N5CC(c6ncc(Cl)cn6)C5)ccc4C3=O)CC1C2 (racemic) [Compound 172-B, Rac-1-(5-(((trans)-2-(3-(5-chloropyrimidin-2-yl)azetidin-1-yl)cyclohexyl)oxy)-1-oxoisoindolin-2-yl)-3-azabicyclo[3.1.1]heptane-2,4-dione]"
,> 30,0.013,0.003,77.7,,"O=C1CCC(N2Cc3cc(O[C@H]4CCCC[C@@H]4N4CC(c5ncc(C6CC6)cn5)C4)ccc3C2=O)C(=O)N1 (single isomer, unassigned) [Compound 135-B]"
,> 30,0.006,0.004,,81.3,"O=C1CCC(N2Cc3cc(O[C@H]4CCCC[C@@H]4N4CC(c5ccc(Cl)cn5)C4)ccc3C2=O)C(=O)N1 (single isomer, unassigned) [Compound 99-B]"
,> 30,0.007,0.012,,74.9,"O=C1CCC(N2Cc3cc(O[C@@H]4CCCC[C@@H]4N4CC(c5ccc6ccccc6n5)C4)ccc3C2=O)C(=O)N1 (mixture of isomers) [Compound 146-B, Rac-3-(1-oxo-5-(((cis)-2-(3-(quinolin-2-yl)azetidin-1-yl)cyclohexyl)oxy)isoindolin-2-yl)piperidine-2,6-dione]"
,> 30,0.004,0.006,,73.7,"O=C1CCC(N2Cc3cc(O[C@H]4CCCC[C@@H]4N4CC(c5cncc(Cl)c5)C4)ccc3C2=O)C(=O)N1 (single isomer, unassigned) [Compound 116-B]"
,> 30,0.012,0.02,,67.1,"Cc1cnccc1C1CN([C@H]2CCCC[C@@H]2Oc2ccc3c(c2)CN(C2CCC(=O)NC2=O)C3=O)C1 (single isomer, unassigned) [Compound 112-B]"
,> 30,0.018,0.011,,24.2,"O=C1CCC(N2Cc3cc(O[C@@H]4CCCC[C@H]4N4CC(c5ccc(C(F)(F)F)cn5)C4)ccc3C2=O)C(=O)N1 (single isomer, unassigned) [Compound 128-B]"
,> 30,0.033,0.035,,62.4,"O=C1CCC(N2Cc3cc(O[C@@H]4CCCC[C@@H]4N4CC(c5ncncc5Cl)C4)ccc3C2=O)C(=O)N1 (mixture of isomers) [Compound 139-B, Rac-3-(5-(((cis)-2-(3-(5-chloropyrimidin-4-yl)azetidin-1-yl)cyclohexyl)oxy)-1-oxoisoindolin-2-yl)piperidine-2,6-dione]"
,> 30,0.001,0.001,,74.7,"CC(C)(C)OC(=O)N1CCC(C2CN([C@H]3CCCC[C@@H]3Oc3ccc4c(c3)CN(C3CCC(=O)NC3=O)C4=O)C2)CC1 (stereo partly drawn) [Compound 26-A, tert-butyl 4-(1-((1S,2S)-2-((2-(2,6-dioxopiperidin-3-yl)-1-oxoisoindolin-5-yl)oxy)cyclohexyl)azetidin-3-yl)piperidine-1-carboxylate]"
,> 30,0.002,0.003,,86.2,"O=C1CCC(N2Cc3cc(O[C@H]4CCCC[C@@H]4N4CC(c5ccc6ccccc6n5)C4)ccc3C2=O)C(=O)N1 (single isomer, unassigned) [Compound 89-B]"
